# Assay results published in ChEMBL document CHEMBL5620430, “Design, synthesis and biological evaluation of indazole derivatives as selective covalent inhibitors of FGFR4 in wild-type and gatekeeper mutants” (Eur J Med Chem, 2023).
# Calls of active or inactive are those of the source. The calls are words filed in the database; no cut-off is given here.
# Key:
# [1] = Tmax in Sprague-Dawley rat at 10 mg/kg, po by LC-MS/MS analysis; format: ADME, organism-based; details: in vivo
# [2] = biological target: T1, Fibroblast growth factor receptor 4 (Homo sapiens, UniProt P22455)
# Target sequence in this assay (P22455 whole entry): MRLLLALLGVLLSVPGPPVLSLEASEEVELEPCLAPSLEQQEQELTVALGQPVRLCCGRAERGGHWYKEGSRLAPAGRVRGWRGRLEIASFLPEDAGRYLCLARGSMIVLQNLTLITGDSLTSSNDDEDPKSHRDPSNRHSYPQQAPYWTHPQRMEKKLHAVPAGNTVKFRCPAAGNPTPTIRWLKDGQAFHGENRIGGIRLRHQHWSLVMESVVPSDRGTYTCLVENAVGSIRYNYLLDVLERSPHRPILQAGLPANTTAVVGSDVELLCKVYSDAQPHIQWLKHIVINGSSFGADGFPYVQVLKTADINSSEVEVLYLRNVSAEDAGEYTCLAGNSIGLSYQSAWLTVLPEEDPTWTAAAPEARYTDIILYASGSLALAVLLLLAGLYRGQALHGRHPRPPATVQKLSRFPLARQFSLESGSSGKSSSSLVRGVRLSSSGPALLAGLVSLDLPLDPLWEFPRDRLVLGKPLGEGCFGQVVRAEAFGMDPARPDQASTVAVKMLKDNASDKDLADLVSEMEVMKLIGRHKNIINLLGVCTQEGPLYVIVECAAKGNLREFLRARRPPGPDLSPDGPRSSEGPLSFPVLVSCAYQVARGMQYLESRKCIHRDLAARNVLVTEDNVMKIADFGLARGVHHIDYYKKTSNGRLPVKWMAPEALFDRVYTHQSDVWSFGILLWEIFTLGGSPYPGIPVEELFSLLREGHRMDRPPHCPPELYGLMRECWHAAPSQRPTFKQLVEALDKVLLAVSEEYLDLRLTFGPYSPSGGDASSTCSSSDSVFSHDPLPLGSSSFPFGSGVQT
# Description: Inhibition of FGFR4 (445 to 753 residues) (unknown origin) expressed in Escherichia coli
# [3] = Toxicity in NSG mouse assessed as effect on HDL-C level at 20 to 40 mg/kg […]; format: organism-based; details: in vivo, dose 20-40 mg/kg
# [4] = Toxicity in NSG mouse assessed as effect on lung at 20 to 40 mg/kg by H and E staining based analysis; format: organism-based; details: in vivo, dose 20-40 mg/kg
# [5] = Toxicity in NSG mouse assessed as effect on CHO level at 20 to 40 mg/kg […]; format: organism-based; details: in vivo, dose 20-40 mg/kg
# [6] = biological target: T1, Fibroblast growth factor receptor 4; test: Inhibition of FGFR4 in human Huh-7 cells assessed as inhibition of ERK1/2 phosphorylation incubated for 2 hrs followed by compound washout and measured upto 8 hrs by Western blot analysis; format: cell-based
# Target sequence in this assay (P22455 22-802 limits assumed): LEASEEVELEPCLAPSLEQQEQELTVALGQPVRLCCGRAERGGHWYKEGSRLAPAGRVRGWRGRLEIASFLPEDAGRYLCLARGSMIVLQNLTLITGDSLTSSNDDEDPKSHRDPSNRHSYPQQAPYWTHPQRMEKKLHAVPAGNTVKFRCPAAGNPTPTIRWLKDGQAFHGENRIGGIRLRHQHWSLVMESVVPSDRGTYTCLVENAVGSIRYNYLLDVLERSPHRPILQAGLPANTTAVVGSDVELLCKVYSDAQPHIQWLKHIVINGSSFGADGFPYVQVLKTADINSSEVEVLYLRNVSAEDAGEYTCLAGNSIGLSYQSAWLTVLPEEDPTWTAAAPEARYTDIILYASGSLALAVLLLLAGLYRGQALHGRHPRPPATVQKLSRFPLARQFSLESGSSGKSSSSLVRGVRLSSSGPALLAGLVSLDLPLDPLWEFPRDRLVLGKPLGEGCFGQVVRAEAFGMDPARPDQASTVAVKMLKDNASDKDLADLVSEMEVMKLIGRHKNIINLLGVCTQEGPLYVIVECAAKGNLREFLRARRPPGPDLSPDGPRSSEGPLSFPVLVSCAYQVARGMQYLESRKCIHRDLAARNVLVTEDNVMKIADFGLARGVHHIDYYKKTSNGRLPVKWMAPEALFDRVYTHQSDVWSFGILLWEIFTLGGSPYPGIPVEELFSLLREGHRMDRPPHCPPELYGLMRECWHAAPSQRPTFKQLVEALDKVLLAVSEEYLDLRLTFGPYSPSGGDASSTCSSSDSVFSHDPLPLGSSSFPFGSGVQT
# [7] = AUC (0 to t) in Sprague-Dawley rat at 10 mg/kg, po by LC-MS/MS analysis; format: ADME, organism-based; details: in vivo
# [8] = MRT (0 to t) in Sprague-Dawley rat at 2 mg/kg, iv by LC-MS/MS analysis; format: ADME, organism-based; details: in vivo
# [9] = Cmax in Sprague-Dawley rat at 10 mg/kg, po by LC-MS/MS analysis; format: ADME, organism-based; details: in vivo
# Huh-7 [10] = test: Antitumor activity against human Huh-7 cells xenografted in NSG mouse assessed as suppression of tumor growth at 40 mg/kg, ip administered twice per day for 2 weeks relative to control; format: functional
# [11] = Antiproliferative activity against human L02 cells measured after 24 to 48 hrs by MTT assay; format: toxicity, cell-based
# BaF3 = test: cells; details: Mus musculus
# Description: Antiproliferative activity against mouse BaF3 cells harbouring ETV6-FGFR4-V550L mutant measured after 24 to 48 hrs by MTT assay
# [12] = Toxicity in NSG mouse assessed as effect on UA level at 20 to 40 mg/kg […]; format: organism-based; details: in vivo, dose 20-40 mg/kg
# Huh-7 [13] = test: Inhibition of cell migration in human Huh-7 cells at 5 uM incubated for 24 hrs by wound healing assay relative to control; format: functional
# [14] = Toxicity in NSG mouse assessed as effect on TP level at 20 to 40 mg/kg […]; format: organism-based; details: in vivo, dose 20-40 mg/kg
# [15] = Toxicity in NSG mouse assessed as effect on liver at 20 to 40 mg/kg by H and E staining based analysis; format: organism-based; details: in vivo, dose 20-40 mg/kg
structure (smiles),measurement,setting,value
C=CC(=O)Nc1cc2c(cc1-c1n[nH]c3ccc(O[C@H](C)c4c(Cl)cncc4Cl)cc13)CCN(C)C2,Tmax,[1],1.67 h
same,IC50,[2],2.4 nM
same,Activity,[3],Non-Toxic
same,Activity,[4],Non-Toxic
same,Activity,[5],Non-Toxic
same,inhibition,[6],Active
same,AUC(0-t),[7],13 ng·h/mL
same,MRT last,[8],1.55 h
same,Cmax,[9],4.91 ng/mL
same,Activity,Huh-7 [10],83%
same,IC50,[11],> 10000 nM
same,IC50,BaF3,2 nM
same,Activity,[12],Non-Toxic
same,inhibition at 5 µM,Huh-7 [13],90%
same,Activity,[14],Non-Toxic
same,Activity,[15],Non-Toxic
